Starred links: 1 amine or outer side, 2 acyl side, 3 side chain; linkers in the order of their positions; H or OH if unused. Positions of bridges follow the written chain, without caps; N, C: chain ends. Non-standard residues stand in square brackets, D forms with d. Residues, ends and D or L forms follow the SMILES beside them. *: point of attachment. hPhe(3,5-F2-4-CF3) = N[C@@H](CCc1cc(F)c(C(F)(F)F)c(F)c1)C(=O)O; hPhe(3-Cl-4-CF3) = N[C@@H](CCc1ccc(C(F)(F)F)c(Cl)c1)C(=O)O; hPhe(3-F,4-CF3) = N[C@@H](CCc1ccc(C(F)(F)F)c(F)c1)C(=O)O; NMePhe(4-CF3) = CN[C@@H](Cc1ccc(C(F)(F)F)cc1)C(=O)O; NMePhe(4-Me) = CN[C@@H](Cc1ccc(C)cc1)C(=O)O; NMedβ3hAla = C[C@H](CC(=O)[*:2])N(C)[*:1]; NMeNva(5,5-F2) = CN[C@@H](CCC(F)F)C(=O)O; NMeGly(cPent) = CN[C@H](C(=O)O)C1CCCC1; Pro(4,4-F2) = O=C(O)[C@@H]1CC(F)(F)CN1; NMeCha = CN[C@@H](CC1CCCCC1)C(=O)O; cisHyp = O=C(O)[C@@H]1C[C@H](O)CN1; NEtLeu = CCN[C@@H](CC(C)C)C(=O)O; NMeChg = CN[C@H](C(=O)O)C1CCCCC1; NMeI = CC[C@H](C)[C@H](NC)C(=O)O; Gly(cBu) = N[C@H](C(=O)O)C1CCC1; NMeD = CN[C@@H](CC(=O)O)C(=O)O; NMeL = CN[C@@H](CC(C)C)C(=O)O; NMePra = C#CC[C@H](NC)C(=O)O; NMeV = CN[C@H](C(=O)O)C(C)C; d(β3hA) = C[C@@H](N)CC(=O)O; NMeA = CN[C@@H](C)C(=O)O; Piperidide = C1CCN(*)CC1; Ac5c = NC1(C(=O)O)CCCC1; Aze = O=C(O)[C@@H]1CCN1; Sar = CNCC(=O)O

As a reminder, the IC50 is the concentration at which inhibition is half-maximal. A low value points to greater potency.

In this assay the test system is Human pancreatic cancer cell line AsPC-1. Briefly: Measurement of AsPC-1 cell growth inhibition (AsPC-1 CGI). It counts as cell-based. As to conditions: 96 h. The method, boiled down:
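AsPC-1 cells in 15% FBS RPMI-1640 were exposed to test compound for 96 hours at 37° C, with CellTiter-Glo as endpoint.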

For the molecule `CO[C@H](C)[C@@H]1NC(=O)[C@H](CC(C)C)N(C)C(=O)C[C@@H](C(=O)N2CCCCC2)N(C)C(=O)[C@H](C(C)C)N(C)C(=O)C2(CCCC2)NC(=O)[C@@H]2CCCN2C(=O)[C@H](CCc2ccc(C(F)(F)F)c(Cl)c2)NC(=O)CN(C)C(=O)[C@H](CC2CCCCC2)N(C)C(=O)[C@@H]2CCN2C(=O)[C@H](C)N(C)C1=O` [Compound 497] ([NMeL]T(Me)[NMeA][Aze][NMeCha][Sar][hPhe(3-Cl-4-CF3)]P[Ac5c][NMeV][NMeD]-Piperidide; lactam N-11), the 50% inhibitory concentration (IC50) is 100 to 500 nM.
The value for `CC[C@H](C)[C@@H]1NC(=O)[C@H](CC(C)C)N(C)C(=O)C[C@@H](C(=O)N2CCCCC2)N(C)C(=O)[C@H](C2CCCCC2)N(C)C(=O)C2(CCCC2)NC(=O)[C@H](CCC(F)F)N(C)C(=O)[C@H](CCc2ccc(C(F)(F)F)c(Cl)c2)NC(=O)CN(C)C(=O)[C@H](CC2CCCCC2)N(C)C(=O)CN(C)C(=O)CN(C)C1=O` [Compound 523] ([NMeL]I[Sar][Sar][NMeCha][Sar][hPhe(3-Cl-4-CF3)][NMeNva(5,5-F2)][Ac5c][NMeChg][NMeD]-Piperidide; lactam N-11) was 100 to 500 nM.
In the case of `CC[C@H](C)[C@@H]1NC(=O)[C@H](CC(C)C)N(CC)C(=O)C[C@@H](C)NC(=O)[C@H](C2CCCC2)N(C)C(=O)C2(CCCC2)NC(=O)[C@@H]2CCCN2C(=O)[C@H](CCc2ccc(C(F)(F)F)c(Cl)c2)NC(=O)CN(C)C(=O)[C@H](Cc2ccc(C)cc2)N(C)C(=O)[C@@H]2CCN2C(=O)[C@H](C)N(C)C1=O` [Compound 531] (cyclo([Ac5c][NMeGly(cPent)][d(β3hA)][NEtLeu]I[NMeA][Aze][NMePhe(4-Me)][Sar][hPhe(3-Cl-4-CF3)]P)), the IC50 lay within 20 to 50 nM.
In the case of `CC[C@H](C)[C@@H]1NC(=O)[C@H](CC(C)C)N(C)C(=O)C[C@@H](C(=O)N2CCCCC2)N(C)C(=O)[C@H](CC(C)C)N(C)C(=O)C2(CCCC2)NC(=O)[C@@H]2C[C@H](O)CN2C(=O)[C@H](CCc2ccc(C(F)(F)F)c(F)c2)NC(=O)CN(C)C(=O)[C@H](CC2CCCCC2)N(C)C(=O)CN(C)C(=O)CN(C)C1=O` [Compound 544, (3S,9S,18S,21S,25S,28S,34S,36S)-9-(cyclohexylmethyl)-3-[2-[3-fluoro-4-(trifluoromethyl)phenyl]ethyl]-36-hydroxy-21,28-diisobutyl-7,10,13,16,22,26,29-heptamethyl-18-[(1S)-1-methylpropyl]-25-(piperidine-1-carbonyl)spiro[1,4,7,10,13,16,19,22,26,29,32-undecazabicyclo[32.3.0]heptatriacontane-31,1′-cyclopentane]-2,5,8,11,14,17,20,23,27,30,33-undecone] ([NMeL]I[Sar][Sar][NMeCha][Sar][hPhe(3-F,4-CF3)][cisHyp][Ac5c][NMeL][NMeD]-Piperidide; lactam N-11) it was 100 to 500 nM; in that of `CC[C@H](C)[C@@H]1NC(=O)[C@H](CC(C)C)N(C)C(=O)C[C@@H](C(=O)N2CCCCC2)N(C)C(=O)[C@H](C2CCCCC2)N(C)C(=O)C2(CCCC2)NC(=O)[C@@H]2CCCN2C(=O)[C@H](CCc2ccc(C(F)(F)F)c(Cl)c2)NC(=O)CN(C)C(=O)[C@H](CC2CCCCC2)N(C)C(=O)CN(C)C(=O)CN(C)C1=O` [Compound 558] ([NMeL]I[Sar][Sar][NMeCha][Sar][hPhe(3-Cl-4-CF3)]P[Ac5c][NMeChg][NMeD]-Piperidide; lactam N-11), 20 to 50 nM.
The value for `C#CC[C@H]1C(=O)N[C@@H]([C@@H](C)CC)C(=O)N(C)[C@@H](C)C(=O)N2CC[C@H]2C(=O)N(C)[C@@H](CC2CCCCC2)C(=O)N(C)CC(=O)N[C@@H](CCc2ccc(C(F)(F)F)c(Cl)c2)C(=O)N2CCC[C@H]2C(=O)NC2(CCCC2)C(=O)N(C)[C@@H](C(C)C)C(=O)N(C)[C@H](C(=O)N2CCCCC2)CC(=O)N1C` [Compound 559] ([NMePra]I[NMeA][Aze][NMeCha][Sar][hPhe(3-Cl-4-CF3)]P[Ac5c][NMeV][NMeD]-Piperidide; lactam N-11) was 100 to 500 nM; that for `CC[C@H](C)[C@@H]1NC(=O)[C@H](CC(C)C)N(C)C(=O)C[C@@H](C(=O)N2CCCCC2)N(C)C(=O)[C@H](C2CCCC2)N(C)C(=O)C2(CCCC2)NC(=O)[C@@H]2CCCN2C(=O)[C@H](CCc2ccc(C(F)(F)F)c(F)c2)NC(=O)CN(C)C(=O)[C@H](CC2CCCCC2)N(C)C(=O)[C@@H]2CCN2C(=O)[C@H](C)N(C)C1=O` [Compound 563] ([NMeL]I[NMeA][Aze][NMeCha][Sar][hPhe(3-F,4-CF3)]P[Ac5c][NMeGly(cPent)][NMeD]-Piperidide; lactam N-11) was 20 to 50 nM.
The value for `CC[C@H](C)[C@@H]1NC(=O)[C@H](CC(C)C)N(C)C(=O)C[C@@H](C(=O)N(C)C)NC(=O)[C@H]([C@@H](C)CC)N(C)C(=O)C2(CCCC2)NC(=O)[C@@H]2CCCN2C(=O)[C@H](CCc2ccc(C(F)(F)F)c(Cl)c2)NC(=O)CN(C)C(=O)[C@H](CC2CCCCC2)N(C)C(=O)[C@@H]2CCN2C(=O)[C@H](C)N(C)C1=O` [Compound 568] ([NMeL]I[NMeA][Aze][NMeCha][Sar][hPhe(3-Cl-4-CF3)]P[Ac5c][NMeI]D-NMe2; lactam N-11) was 100 to 500 nM; that for `CC[C@H](C)[C@@H]1NC(=O)[C@H](CC2CCCCC2)N(C)C(=O)C[C@@H](C(=O)N2CCCCC2)N(C)C(=O)[C@H](C(C)C)N(C)C(=O)C2(CCCC2)NC(=O)[C@@H]2CCCN2C(=O)[C@H](CCc2ccc(C(F)(F)F)c(Cl)c2)NC(=O)CN(C)C(=O)[C@H](CC2CCCCC2)N(C)C(=O)[C@@H]2CCN2C(=O)[C@H](C)N(C)C1=O` [Compound 572] ([NMeCha]I[NMeA][Aze][NMeCha][Sar][hPhe(3-Cl-4-CF3)]P[Ac5c][NMeV][NMeD]-Piperidide; lactam N-11) was 100 to 500 nM; that for `CC(C)C[C@H]1C(=O)N[C@@H](C2CCC2)C(=O)N(C)[C@@H](C)C(=O)N2CC[C@H]2C(=O)N(C)[C@@H](CC2CCCCC2)C(=O)N(C)CC(=O)N[C@@H](CCc2ccc(C(F)(F)F)c(Cl)c2)C(=O)N2CCC[C@H]2C(=O)NC2(CCCC2)C(=O)N(C)[C@@H](C(C)C)C(=O)N[C@H](C)CC(=O)N1C` [Compound 580] (cyclo([Ac5c][NMeV][d(β3hA)][NMeL][Gly(cBu)][NMeA][Aze][NMeCha][Sar][hPhe(3-Cl-4-CF3)]P)) was 100 to 500 nM.
For the molecule `CC[C@H](C)[C@@H]1NC(=O)[C@H](CC(C)C)N(C)C(=O)C[C@@H](C(=O)N2CCCCC2)N(C)C(=O)[C@H](C(C)C)N(C)C(=O)C2(CCCC2)NC(=O)[C@@H]2CCCN2C(=O)[C@H](CCc2ccc(C(F)(F)F)c(F)c2)NC(=O)CN(C)C(=O)[C@H](CC2CCCCC2)N(C)C(=O)[C@@H]2CCN2C(=O)CN(C)C1=O` [Compound 599] ([NMeL]I[Sar][Aze][NMeCha][Sar][hPhe(3-F,4-CF3)]P[Ac5c][NMeV][NMeD]-Piperidide; lactam N-11), the IC50 fell in the range of 100 to 500 nM.
The value for `CC[C@H](C)[C@@H]1NC(=O)[C@H](CC(C)C)N(C)C(=O)C[C@@H](C)N(C)C(=O)[C@H](C2CCCCC2)N(C)C(=O)C2(CCCC2)NC(=O)[C@@H]2CC(F)(F)CN2C(=O)[C@H](CCc2cc(F)c(C(F)(F)F)c(F)c2)NC(=O)CN(C)C(=O)[C@H](Cc2ccc(C(F)(F)F)cc2)N(C)C(=O)[C@@H]2CCN2C(=O)[C@H](C)N(C)C1=O` [Compound 606] (cyclo([Ac5c][NMeChg][NMedβ3hAla][NMeL]I[NMeA][Aze][NMePhe(4-CF3)][Sar][hPhe(3,5-F2-4-CF3)][Pro(4,4-F2)])) was 100 to 500 nM.

The values are drawn from patent publication US12371454B2, “Cyclic peptide compound having Kras inhibitory action” (priority 2019, dated 2025).
